Data from patent publication US20250002954A1, “Novel Compound, Use Thereof, and Method for Producing Same, and Compound-Containing Composition, Method for Producing 4-Trehalosamine, and Microorganism” (Microbial Chemistry Research Foundation, priority 2021, published 2025).

Columns and labels:
[1] = test system: trehalase derived from pig kidney; test: Degradation by trehalase derived from pig kidney (glucose release); assay type: in vitro ADME; settings: 0.01 mM to 10 mM substrate, 0.24 units/mL, pH 5.7, 37° C., 20 minutes
Protocol: Trehalose (TRH) or the 4-trehalosamine (4TA) from the <Purification process> of production example 10 was added to and mixed with 135 mM sodium citrate buffer solution (pH 5.7) so that the final concentration was 0 mM, 0.01 mM, 0.1 mM, 1 mM, or 10 mM. Into them, trehalase derived from pig kidney (0.24 units/mL, manufactured by Sigma-Aldrich) was added and left to react at 37° C. for 20 minutes. Into the solution after reaction, a triple amount of Glucose assay reagent (manufactured by Sigma-Aldrich) was added and left to react at room temperature for 15 minutes. After that, absorbance at 340 nm was measured with a plate reader Cytation 5 (manufactured by Bio Tek Instruments) and the amount of glucose released as degradation product was estimated. FIG. 19B is a zoomed-in view of FIG. 19A.

blood glucose level = test: Change in blood glucose level after oral administration to mice; assay type: in vivo, ICR mice; settings: single oral dose 0.5 mg per g of body weight, fasted
Protocol: 4-trehalosamine or trehalose dissolved in saline at 0.5 mg/10 μL per g of body weight was orally administered in a single dose to ICR mice (9-week to 10-week old, female, n=5) that had been fasted overnight. The five mice on which the same treatment had been performed were placed in the same cage.
In a 96-well plate, the centrifuged supernatant sample of dilution of blood with methanol prepared in <Determination of blood level of 4-trehalosamine> (a sample similar to the sample used in the LC-MS analysis) was placed at 5 µL/well and dried by suction with a vacuum pump. After that, it was dissolved in 25 μL of water, 75 μL of Glucose assay reagent (manufactured by Sigma-Aldrich) was added, and the solution was left to stand at 37° C. for 1 hour. Absorbance at 340 nm was then measured with a plate reader Cytation 5 (manufactured by Bio Tek Instruments) and the amount of glucose estimated.

[2] = test system: human ovarian cancer cells OVK18 and human malignant melanoma cells Mewo; test: LC3-II expression in combination with autophagy inhibitor (bafilomycin or chloroquine); assay type: cell-based; settings: 50 mM 4-trehalosamine, 50 μM IMCTA-C14 or 100 mM trehalose 14 hours, then 200 nM BM or 100 μM CQ 4 hours
Protocol: As with the test example 10-1, human ovarian cancer cells OVK18 (obtained from RIKEN BRC) and human malignant melanoma cells Mewo (JCRB0066) were each inoculated on a 12-well microplate at 8×10^4 cells/mL/well, and cultured in DMEM culture medium at 37° C. for 72 hours. After that, a half of the culture fluid in each well was taken and each compound was dissolved so that the final concentration is 50 mM 4-trehalosamine, 50 μM IMCTA-C14, or 100 mM trehalose. After dissolving it sufficiently, the cells were returned to the original well and treated at 37° C. for 14 hours. Untreated cells without addition of the compounds were used as control.
After that, each autophagy inhibitor was added so that the final concentration is 200 nM bafilomycin (BM) or 100 μM chloroquine (CQ), and the cells were cultured at 37° C. for 4 hours. A group with no inhibitor added was cultured in a similar way. After culture, they were turned into samples for western blotting in a similar manner to test example 10-1.
The western blotting was performed in a similar manner to test example 4 except that anti-LC3 antibody (manufactured by Cell Signaling Technology) was used at 1/2,000 dilution as the primary antibody in the method described in test example 4. The results for human ovarian cancer cells OVK18 are shown in FIG. 21A, and the results for human malignant melanoma cells Mewo are shown in FIG. 21B.
Also, the results (graphs) of image analysis on the results of western blotting via Image J (manufactured by National Institutes of Health) are shown in FIGS. 21A and 21B (n=10, mean±S.D.). The vertical axis of the graph indicates the value of the amount of expression (expression amount ratio) of LC3-II for the groups with the different compounds added when the amount of expression of LC3-II in the control (untreated cells) is 1. […]

human trehalase = test: Degradation by human trehalase (cell extract liquids of KP4 and KP4-TREH, LC-MS persistence rate); assay type: in vitro ADME; settings: 20 μg/mL, 37° C., up to 24 hours; for degradation by cell extract liquid of human pancreatic cancer cells KP4: control cells
Protocol: In order to perform a degradation experiment with human trehalase, high expression strains of the same were made.
This plasmid was introduced into various kinds of cultured human cells using Viafect (manufactured by Promega), and the expression level of transient trehalase protein was analyzed by western blotting with 1/2,000-diluted anti-trehalase antibody (manufactured by Santa Cruz). […] Human pancreatic cancer cells KP4 into which pSF-TREH 3-3 plasmid had been introduced as described above was diluted to one cell or less per well, and applied to a 96-well microplate. They were cultured on DMEM culture medium containing 400 μg/mL of G418 (manufactured by Thermo Fisher Scientific), and clones with stable trehalase expression were selected and amplified. Ten strains of KP4-TREH which were the clones with the highest trehalase expression were chosen for use in the subsequent experiments.
Degradation of 4-trehalosamine and trehalose by cell extract liquids of human pancreatic cancer cells KP4 and 10 strains of KP4-TREH, which are cells with high human trehalase expression, was examined.
Using DMEM culture medium, each of the human pancreatic cancer cells KP4 and the 10 strains of KP4-TREH was amplified in a CO2 incubator at 37° C. until they were confluent. After that, the culture medium was removed and washed with PBS (manufactured by Takara Bio Inc.) three times, and cells were collected with a cell scraper in the PBS. After centrifuging the collected cell suspension at 400×g for 3 minutes and removing supernatant, 135 mM citric acid buffer solution (pH 5.7) containing 0.5% Triton (registered trademark) in an amount 15 times the precipitated cells was added and homogenized. The cells were centrifuged at 21,300×g for 10 minutes and the respective supernatants were collected. Aqueous solution of 4-trehalosamine or aqueous solution of trehalose was added at 20 μg/mL to each supernatant and they were left to stand at 37° C. At 0 hours, 2 hours, 8 hours, or 24 hours from the start of reaction, the reaction solutions were collected, was diluted with methanol to 1/10, and centrifuged at 21,300×g for 10 minutes. The respective supernatants were collected and LC-MS analysis was performed under similar conditions to test example 1 to determine the persistence rates of 4-trehalosamine and trehalose in the reaction solution (4TA C) of 4-trehalosamine and the cell extract liquid of human pancreatic cancer cells KP4, the reaction solution (4TA T) of 4-trehalosamine and the cell extract liquid of 10 strains of KP4-TREH, the reaction solution (TRH C) of trehalose and the cell extract liquid of human pancreatic cancer cells KP4, and the reaction solution (TRH T) of trehalose and the cell extract liquid of 10 strains of KP4-TREH.

Row | SMILES | degradation by pig trehalase (release of glucose) [1] | change in blood glucose level (blood glucose level) | expression of LC3-II in combination with bafilomycin (BM) or chloroquine (CQ) [2] | degradation by cell extract liquid of 10 strains of KP4-TREH (high human trehalase expression) (human trehalase) | degradation by cell extract liquid of human pancreatic cancer cells KP4 (human trehalase)
1 | OC[C@H]1O[C@H](O[C@H]2O[C@H](CO)[C@@H](O)[C@H](O)[C@H]2O)[C@H](O)[C@@H](O)[C@@H]1O [trehalose, reference compound] | degraded in this reaction and release of glucose was observed | elevation in the blood glucose level was observed 30 minutes to 1 hour after administration | increased expression of LC3-II | almost disappeared after 8 hours | neither trehalose nor 4-trehalosamine was degraded
2 | N[C@H]1[C@H](O)[C@@H](O)[C@@H](O[C@H]2O[C@H](CO)[C@@H](O)[C@H](O)[C@H]2O)O[C@@H]1CO [4-trehalosamine] | not degraded by pig trehalase | no elevation in the blood glucose level was observed | increased expression of LC3-II | almost no degradation or decrease | neither trehalose nor 4-trehalosamine was degraded
